Where two headings read alike, the source gives them in different places. Some results are limits rather than exact numbers.

Series [1] is described as follows: Tissue drug concentration in stented and adjacent artery segments (LCMS). In kind it is in vivo, porcine. As to conditions: pig, artery tissue adjacent to the stented segment, other: drug eluting stent implanted in coronary artery, Table 4B, stent arm not named; for concentration at 90 days: within 90 days; for concentration at 3 h: within 3 hours; for concentration at 28 days: within 28 days. An excerpt:
The stented artery was cut longitudinally with surgical scissors. The stents were separated from the tissue.

The test system of series [2] is Human Aortic SMC (HAoSMC). Briefly: HAoSMC cell proliferation assay. The class given is cell-based. As to conditions: 72 hours incubation.
Experimental: Cell proliferation assay was done in 96-well format. Low passage cells were trypsinized and seeded in 96 well plates at a density of ˜4000 cells/well. The cells are allowed to attach overnight in a CO2 incubator. Next day, the medium was removed and replaced with fresh complete medium containing various concentrations of the test compounds. The final concentration of vehicle (DMSO) in the test medium was 0.1%. After adding test compounds, the cells were incubated for 72 hours. Following this period, the medium was removed and then added fresh medium (100 μl) containing CellTiter Aqueous (lx concentration final) to the wells and incubated for 2 hours in the CO2 incubator. At the end of incubation measured fluorescence with a plate-reader. Controlled incubations with untreated cells and blank incubations containing only medium were included and tested similarly. Based on the cell viability assay the percentage inhibition of the cell proliferation was determined at the different concentrations of the drug tested.
Series [3] concerns Calcium-reconstituted sheep blood. Briefly: Activated clotting time (ACT). To be noted: individual drug at 0.6 ng/mg. How it is done:
The activated clotting time (ACT) evaluation of anticoagulants was performed in Calcium-reconstituted sheep blood and recorded employing the Hemochron® Response device. […] A target amount of drug solution was then added into the test tube. […] The tube was gently shaken before being inserted into the Hemochron Response detector. The ACT read out was recorded and reported. The ACT of the control blood in the absence of any drug as first determined to establish a baseline. Then ACT was determined in the presence of different concentrations of the drug as a single component. Selected drug combinations, were then tested to evaluate for potential synergy in action between the two drugs.

Series [4] concerns Tissue factor generated antiplatelet. As to conditions: cited from earlier work.
Series [5] can be described thus: Coated balloon tissue concentration in vivo (Table 7). To be noted: for concentration at 15 min: 300 μg. Further details: species or system porcine. An excerpt:
The balloon (e.g., the balloon of a balloon-catheter of a stent-delivery system) was advanced to a site to be treated (e.g., an occluded or weakened section of a blood vessel to be opened up or supported by a stent) in the body of a subject and inflated to a desired inflation diameter. Before, during, and/or after inflation of the balloon, the balloon released the therapeutic composition to, into, or at the treatment site, or to, into, or at an area adjacent thereto, by any suitable mechanism (e.g., concentration gradient, diffusion, pressure, or mechanical force, or a combination thereof). […] The tissue concentration is shown in ng/mg tissue. The coated balloons were evaluated for drug delivery efficiency in an animal study. Drug transfer of the coated balloons into arterial segments were evaluated using harvested pig arteries. The arterial wall was separated after animal study. The arterial walls were then stored in an individual labeled vial. All samples were kept on dry ice until stored in the −80° C. freezer. All samples were then frozen to […] prior to being analyzed.

The term IC50 denotes the point on the concentration scale where inhibition reaches its midpoint. Turning to `CC1CNc2c(cccc2S(=O)(=O)N[C@@H](CCCNC(=N)N)C(=O)N2CC[C@@H](C)C[C@@H]2C(=O)O)C1` (some centres unmarked) [Argatroban], in series [1], the concentration at 90 days was ~3740 ng/g. The HAoSMC proliferation inhibition result in series [2] was “small to no inhibition”. Further, in series [3], the ACT was 301. In series [4], the IC50 is 79 nM and the “IC50 for Tissue factor generated antiplatelet” value is on record as 0.04 ng/mg.

For `COc1ccc(-n2nc(C(N)=O)c3c2C(=O)N(c2ccc(N4CCCCC4=O)cc2)CC3)cc1` [Apixaban], the ACT in series [3] is recorded as 522.

As for `CO[C@H]1C[C@@H]2CC[C@@H](C)[C@@](O)(O2)C(=O)C(=O)N2CCCC[C@H]2C(=O)O[C@H]([C@H](C)C[C@@H]2CC[C@@H](O)[C@H](OC)C2)CC(=O)[C@H](C)/C=C(\C)[C@@H](O)[C@@H](OC)C(=O)[C@H](C)C[C@H](C)/C=C/C=C/C=C/1C` [Sirolimus, rapamycin (also called sirolimus)], in series [1], the concentration at 3 h is ~27000 ng/g, the concentration at 28 days was ~940 ng/g and the concentration at 90 days is ~1280 ng/g. Moreover, the concentration at 7 days in series [5] (pig, coronary artery tissue, within or at 7 days, read-out: tissue concentration of tissue adjacent to the balloon treated segment) was ≥ 1450 ng/g.

Turning to `CO[C@@H]1C[C@H](C[C@@H](C)[C@@H]2CC(=O)[C@H](C)/C=C(\C)[C@@H](O)[C@@H](OC)C(=O)[C@H](C)C[C@H](C)/C=C/C=C/C=C(\C)[C@@H](O)C[C@@H]3CC[C@@H](C)[C@@](O)(O3)C(=O)C(=O)N3CCCC[C@H]3C(=O)O2)CC[C@H]1O` [Novolimus, 16-O-desmethyl-rapamycin], the “tissue concentration of tissue adjacent to the balloon treated segment” value is recorded as “at least 5.94 ng/mg” in series [5] (Superficial Femoral Artery (SFA) tissue, within or at 6 hours); “at least 4.4 ng/mg” in series [5] (Superficial Femoral Artery (SFA) tissue, within or at 3 day); “at least 1.16 ng/mg” in series [5] (Superficial Femoral Artery (SFA) tissue, within or at 7 days); “at least 6.52 ng/mg” in series [5] (coronary artery tissue, within or at 6 hours); “at least 3.77 ng/mg” in series [5] (coronary artery tissue, within or at 3 day); “at least 1.47 ng/mg” in series [5] (coronary artery tissue, within or at 7 days).

`O=C(NC[C@H]1CN(c2ccc(N3CCOCC3=O)cc2)C(=O)O1)c1ccc(Cl)s1` [Rivaroxaban]: in series [1], the concentration at 3 h is ~21000 ng/g and the concentration at 28 days is ~340 ng/g. For the same compound, the concentration at 1 h in series [1] (within one hour from injury and/or implant) is ~38000 ng/g. Moreover, the concentration at 15 min in series [5] (pig, Superficial Femoral Artery (SFA) tissue, within or at 15 minutes, read-out: tissue concentration of tissue adjacent to the balloon treated segment) was ≥ 40600 ng/g. The concentration at 15 min in series [5] (pig, coronary artery tissue, within or at 15 min, read-out: tissue concentration of tissue adjacent to the balloon treated segment) is ≥ 1230 ng/g. Moreover, in series [4], the half-inhibitory concentration (IC50) is 312 nM and the “IC50 for Tissue factor generated antiplatelet” value is listed as 0.136 ng/mg.

The values above are taken from patent publication US11654036B2, “Anticoagulant compounds and methods and devices for their use” (priority 2020, dated 2023).
